Measured values reported in patent EP3046573B1, “AMYLIN ANALOGUES” (Zealand Pharma A/S, priority 2013, dated 2015).
Numbered stars: 1 amine (or outer) side, 2 acyl side, 3 side chain; on linkers, the order of the positions; unused ones are H or OH. Bridge positions count the residues as written; N and C are the ends. Square brackets hold non-standard residues; d marks the D form. Peptide text beside a SMILES is read from it. * marks the point of attachment. C20 diacid = O=C(O)CCCCCCCCCCCCCCCCCCC(=O)*; γGlu = O=C(O)[C@H](CCC(=O)[*:2])N[*:1]; NMeI = CC[C@H](C)[C@H](NC)C(=O)O; Sar = CNCC(=O)O

Assay: Pharmacokinetic (PK) profiling in rats
Format: in vivo
Conditions: male, Sprague Dawley, rat, plasma, single sc bolus, 100 nmol/kg (18, NN96), 20 nmol/kg (72, 76), 30 nmol/kg (73, 82, 118, 162, 166, 172); for CL/F: apparent clearance; for half-life: terminal elimination half-life, read-out: t½ (converted)
Protocol: Sprague Dawley male rats were given a single subcutaneous (sc) bolus of each peptide to be tested at doses as specified below..
Study A: Following the administration of a 100 nmol/kg dose of a test peptide of the invention (Compound 18) and a comparison pramlintide analogue NN96 (see Example 5, above), respectively, blood samples were drawn from the tail vein at 0.5, 3, 8, 15, 36, 60 and 81 hours post-dosing. 4 rats were used (2 rats per compound). The rats were euthanized immediately after the last blood sampling by overdose of O2/CO2.
Study B: 20 nmol/kg doses of Compound 72 and Compound 76, respectively, of the invention were administered. Blood samples were drawn by sublingual bleeding prior to dosing and at 2, 6, 12, 24, 48, 72 and 96 hours after dosing. 4 rats were used (2 rats per compound). The rats were euthanized immediately after the last blood sampling by overdose of O2/CO2.
Study C: 30 nmol/kg doses of Compound 73, Compound 82 and Compound 118, respectively, of the invention were administered. Blood samples were drawn from the tail vein prior to dosing and at 24, 48, 72 and 96 hours after dosing. Blood samples were taken from two rats at each time point, and only 2 blood samples were drawn from each rat, i.e. 8 rats were used for each compound. The rats were euthanized immediately after the last blood sampling by concussion and cervical dislocation.
Study D: 30 nmol/kg doses of Compound 162, Compound 166 and Compound 172 were administered. Blood samples were drawn from the tail vein prior to dosing and at 24, 48, 72, 96 and 168 hours after dosing. Blood samples were taken from two rats at each time point, and only 2 blood samples were drawn from each rat, i.e. 10 rats were used for each compound. The rats were euthanized immediately after the last blood sampling by concussion and cervical dislocation.
The dosing vehicle used for each test peptide was a mannitol-containing histidine buffer (pH 7.0). Plasma samples were analyzed after precipitation with ethanol by liquid chromatography mass spectrometry (LC-MS/MS). Mean plasma concentrations were used for calculation of the pharmacokinetic parameters using the non-compartmental approach in Phoenix WinNonlin 6.3.
Plasma terminal elimination half-life (t½) was determined as In(2)/λz, where λz is the magnitude of the slope of the log linear regression of the log concentration versus time profile during the terminal phase. Apparent clearance (CL/F) was determined as dose/AUCinf (sc), where AUCinf is the area under the plasma concentration vs. time curve extrapolated to infinity (AUCinf = AUClast + Clast/λz, where Clast is the last observed plasma concentration).

## CC[C@H](C)[C@@H](C(=O)N[C@@H](CC(C)C)C(=O)N[C@@H](CO)C(=O)N[C@@H](CO)C(=O)N[C@H](C(=O)N[C@@H](CCC(=O)O)C(=O)N[C@H](C(=O)NCC(=O)N[C@@H](CO)C(=O)N[C@@H](CCC(=O)O)C(=O)N[C@H](C(=O)N1CCC[C@H]1C(N)=O)[C@@H](C)O)C(C)C)[C@@H](C)O)N(C)C(=O)[C@H](C)NC(=O)CN(C)C(=O)[C@H](Cc1ccccc1)NC(=O)[C@H](CO)NC(=O)[C@H](CO)NC(=O)[C@H](CO)NC(=O)[C@H](CO)NC(=O)[C@H](CCCNC(=N)N)NC(=O)[C@H](Cc1c[nH]cn1)NC(=O)[C@H](CC(C)C)NC(=O)[C@H](Cc1ccccc1)NC(=O)[C@H](CCC(=O)O)NC(=O)[C@H](C)NC(=O)[C@H](CC(C)C)NC(=O)[C@H](CCCNC(=N)N)NC(=O)[C@H](CCC(N)=O)NC(=O)[C@@H](NC(=O)[C@H](C)NC(=O)[C@@H]1CSSC[C@H](NC(=O)[C@H](CCCNC(=N)N)NC(=O)CC[C@H](NC(=O)CCCCCCCCCCCCCCCCCCC(=O)O)C(=O)O)C(=O)N[C@@H](CC(N)=O)C(=O)N[C@@H]([C@@H](C)O)C(=O)N[C@@H](C)C(=O)N[C@@H]([C@@H](C)O)C(=O)N1)[C@@H](C)O [Compound 76, [19CD]-isoGlu-RC()NTATC()ATQRLAEFLHRSSSSF-Gly(Me)-A-Ile(Me)-LSSTEVGSETP-NH2] ({C20 diacid-γGlu}-RCNTATCATQRLAEFLHRSSSSF[Sar]A[NMeI]LSSTEVGSETP-NH2; disulfide 2-7)
  CL/F: 3.53 mL/h/kg
  half-life: 37.3 h

## CC[C@H](C)[C@@H](C(=O)N[C@@H](CC(C)C)C(=O)N[C@@H](CO)C(=O)N[C@@H](CO)C(=O)N[C@H](C(=O)N[C@@H](CC(=O)O)C(=O)N[C@H](C(=O)NCC(=O)N[C@@H](CO)C(=O)N[C@@H](CC(=O)O)C(=O)N[C@H](C(=O)N1CCC[C@H]1C(N)=O)[C@@H](C)O)C(C)C)[C@@H](C)O)N(C)C(=O)[C@H](C)NC(=O)CN(C)C(=O)[C@H](Cc1ccccc1)NC(=O)[C@H](CO)NC(=O)[C@H](CO)NC(=O)[C@H](CO)NC(=O)[C@H](CO)NC(=O)[C@H](CCCNC(=N)N)NC(=O)[C@H](Cc1c[nH]cn1)NC(=O)[C@H](CC(C)C)NC(=O)[C@H](Cc1ccccc1)NC(=O)[C@H](CCC(=O)O)NC(=O)[C@H](C)NC(=O)[C@H](CC(C)C)NC(=O)[C@H](CCCNC(=N)N)NC(=O)[C@H](CCC(N)=O)NC(=O)[C@@H](NC(=O)[C@H](C)NC(=O)[C@@H]1CSSC[C@H](NC(=O)[C@H](CCCNC(=N)N)NC(=O)CC[C@H](NC(=O)CCCCCCCCCCCCCCCCCCC(=O)O)C(=O)O)C(=O)N[C@@H](CC(N)=O)C(=O)N[C@@H]([C@@H](C)O)C(=O)N[C@@H](C)C(=O)N[C@@H]([C@@H](C)O)C(=O)N1)[C@@H](C)O [Compound 73, [19CD]-isoGlu-RC()NTATC()ATQRLAEFLHRSSSSF-Gly(Me)-A-Ile(Me)-LSSTDVGSDTP-NH2] ({C20 diacid-γGlu}-RCNTATCATQRLAEFLHRSSSSF[Sar]A[NMeI]LSSTDVGSDTP-NH2; disulfide 2-7)
  CL/F: 3.06 mL/h/kg
  half-life: 55.4 h
